Earlier results as cited in US20190201417A1, “TOPICAL STEROID THERAPY FOR MUCOSAL AND DERMATOLOGICAL INFLAMMATORY DISEASE” (CINRX PHARMA, LLC, priority 2016, published 2019).
Like-named read-outs stand apart in the source and are kept apart here.

Experiments:
[1] = tested on: Caco-2 cell monolayers; details: coadministration with chitosan glutamate
[2] = rats, nasal application with chitosan glutamate
[3] = sheep, nasal application with chitosan glutamate

For “9-desglycinamide-8-arginine vasopressin [DGAVP]”, the “transport of the peptide drug” value [1] is given as “increased markedly”.
For CCNC(=O)[C@@H]1CCCN1C(=O)[C@H](CCCNC(=N)N)NC(=O)[C@H](CC(C)C)NC(=O)[C@@H](COC(C)(C)C)NC(=O)[C@H](Cc1ccc(O)cc1)NC(=O)[C@H](CO)NC(=O)[C@H](Cc1c[nH]c2ccccc12)NC(=O)[C@H](Cc1cnc[nH]1)NC(=O)[C@@H]1CCC(=O)N1 [buserelin], the “absolute bioavailability of buserelin” value (intraduodenal application with chitosan hydrochloride in a gel formulation) is given as 5.1±1.5% and the “absolute bioavailability of buserelin” value (intraduodenal application, baseline without chitosan hydrochloride) is given as 0.1±0.1%.
For insulin, the blood glucose levels [2] is given as “significant reduction” and the blood glucose levels [3] is given as “significant reduction”.
